Measured values published in publication PMC4297530 (Biological psychiatry, 2014).

Legend:
[1] = system: plasma corticosterone (HPA axis); experiment: Combined DEX/CRF test, plasma corticosterone; type: in vivo, mouse
[2] = system: histone acetylation in brain; details: at the dose used in present study (5 mg/kg i.p.); cited from earlier work
[3] = system: Hsp90 / α-tubulin acetylation and Hsp90-FKBP51/52 association; experiment: Co-immunoprecipitation and acetylation blots in RN46 serotonin cell line; type: cell-based, rat; details: 2.5 uM, RN46 cells, vs vehicle
[4] = system: GR translocation in RN46A-B14 cells; experiment: DEX-induced GR-GFP translocation, high-content imaging; type: cell-based, rat; details: 2.5 μM for 1 hour, then 1 μM DEX 30 min, p<0.05 vs. vehicle

With C[C@@H]1C[C@H]2[C@@H]3CCC4=CC(=O)C=C[C@]4(C)[C@@]3(F)[C@@H](O)C[C@]2(C)[C@@]1(O)C(=O)CO [dexamethasone] the “percent change in plasma corticosterone, resilient mice” value ([1]; 6 hours after DEX 0.05 mg/kg, CSDS resilient mice) was −34% and the “percent change in plasma corticosterone, control mice” value ([1]; 6 hours after DEX 0.05 mg/kg, undefeated control mice) was −13%.

For O=C(NO)c1cnc(NC2(c3ccccc3)CC2)nc1 [ACY-738], the “histone acetylation in brain” value [2] is given as “does not elevate”, the “CORT response following DEX/CRF challenge” value ([1]; chronic ACY-738 treatment, data not shown) is given as “did not alter” and the “association of Hsp90 with FKBP51” value ([3]; co-IP) is given as “increased association”. For the same molecule, the “interaction of Hsp90 with FKBP52” value ([3]; co-IP) was “reduced interaction”, the “acetylation of α-tubulin” value ([3]; input samples) was “increase” and the “acetylation of Hsp90 at lysine 294” value [3] was “increased acetylation”. The “GR translocation induced by dexamethasone” value [4] was “significantly reduced”.

With CN1CCc2c(c3ccccc3n2Cc2ccc(C(=O)NO)cc2)C1 [Tubastatin A] the “GR translocation induced by dexamethasone” value [4] was “significantly reduced”.
